In PubChem BioAssay (NCI):
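Interpolation was linear, between the two tested concentrations surrounding the appropriate level; five concentrations were tested over 48 hours in 96-well plates. GI50 marks 50% less growth. TGI: concentration producing complete growth inhibition.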

How the values were obtained:
Assay in all cases: NCI-60 cell line screen, 48 h
SF-295 CNS = test system: SF-295 CNS
LXFL 529 NSCLC = test system: LXFL 529 NSCLC
SK-OV-3 ovarian = test system: SK-OV-3 ovarian
UO-31 renal = test system: UO-31 renal
MALME-3M melanoma = test system: MALME-3M melanoma
RXF 393 renal = test system: RXF 393 renal
SF-268 CNS = test system: SF-268 CNS
TK-10 renal = test system: TK-10 renal
XF 498 CNS = test system: XF 498 CNS
SF-539 CNS = test system: SF-539 CNS
SNB-78 CNS = test system: SNB-78 CNS
KM12 colon = test system: KM12 colon
SW-620 colon = test system: SW-620 colon
SN12C renal = test system: SN12C renal
SK-MEL-2 melanoma = test system: SK-MEL-2 melanoma
DMS 114 small cell lung = test system: DMS 114 small cell lung
HCC-2998 colon = test system: HCC-2998 colon
LOX IMVI melanoma = test system: LOX IMVI melanoma
CAKI-1 renal = test system: CAKI-1 renal
HCT-15 colon = test system: HCT-15 colon
SK-MEL-5 melanoma = test system: SK-MEL-5 melanoma
DLD-1 colon = test system: DLD-1 colon
NCI-H522 lung = test system: NCI-H522 lung
SNB-19 CNS = test system: SNB-19 CNS
SK-MEL-28 melanoma = test system: SK-MEL-28 melanoma
HCT-116 colon = test system: HCT-116 colon
OVCAR-8 ovarian = test system: OVCAR-8 ovarian
ACHN renal = test system: ACHN renal
OVCAR-3 ovarian = test system: OVCAR-3 ovarian
HT29 colon = test system: HT29 colon
COLO 205 colon = test system: COLO 205 colon
IGROV1 ovarian = test system: IGROV1 ovarian
U251 CNS = test system: U251 CNS
EKVX NSCLC = test system: EKVX NSCLC
DMS 273 small cell lung = test system: DMS 273 small cell lung
NCI-H23 lung = test system: NCI-H23 lung
HOP-18 NSCLC = test system: HOP-18 NSCLC
SNB-75 CNS = test system: SNB-75 CNS
M19-MEL melanoma = test system: M19-MEL melanoma
A498 renal = test system: A498 renal
786-0 renal = test system: 786-0 renal
UACC-62 melanoma = test system: UACC-62 melanoma
OVCAR-4 ovarian = test system: OVCAR-4 ovarian
HOP-92 NSCLC = test system: HOP-92 NSCLC
A549 NSCLC = test system: A549 NSCLC
K-562 leukemia = test system: K-562 leukemia
KM20L2 colon = test system: KM20L2 colon
M14 melanoma = test system: M14 melanoma
MOLT-4 leukemia = test system: MOLT-4 leukemia
HOP-62 NSCLC = test system: HOP-62 NSCLC
RPMI-8226 leukemia = test system: RPMI-8226 leukemia
OVCAR-5 ovarian = test system: OVCAR-5 ovarian
UACC-257 melanoma = test system: UACC-257 melanoma
NCI-H460 lung = test system: NCI-H460 lung

CCC[CH2][Sn]1([CH2]CCC)[O]C(=O)CN=C(C)c2ccccc2[O]1
GI50 (SF-295 CNS): 1480 nM
TGI (SF-295 CNS): 2860 nM
GI50 (LXFL 529 NSCLC): 254 nM
TGI (LXFL 529 NSCLC): 1280 nM
GI50 (SK-OV-3 ovarian): 2370 nM
TGI (SK-OV-3 ovarian): 4140 nM
GI50 (UO-31 renal): 1320 nM
TGI (UO-31 renal): 2630 nM
GI50 (MALME-3M melanoma): 1040 nM
TGI (MALME-3M melanoma): 2300 nM
GI50 (RXF 393 renal): 222 nM
TGI (RXF 393 renal): 786 nM
GI50 (SF-268 CNS): 306 nM
TGI (SF-268 CNS): 1650 nM
GI50 (TK-10 renal): 586 nM
TGI (TK-10 renal): 1780 nM
GI50 (XF 498 CNS): 1740 nM
TGI (XF 498 CNS): 3190 nM
GI50 (SF-539 CNS): 2780 nM
TGI (SF-539 CNS): > 100000 nM
GI50 (SNB-78 CNS): 312 nM
TGI (SNB-78 CNS): 1700 nM
GI50 (KM12 colon): 1270 nM
TGI (KM12 colon): 2580 nM
GI50 (SW-620 colon): 413 nM
TGI (SW-620 colon): 1590 nM
GI50 (SN12C renal): 1130 nM
TGI (SN12C renal): 2340 nM
GI50 (SK-MEL-2 melanoma): 500 nM
TGI (SK-MEL-2 melanoma): 1550 nM
GI50 (DMS 114 small cell lung): 227 nM
TGI (DMS 114 small cell lung): 655 nM
GI50 (HCC-2998 colon): 1530 nM
TGI (HCC-2998 colon): 2920 nM
GI50 (LOX IMVI melanoma): 533 nM
TGI (LOX IMVI melanoma): 1840 nM
GI50 (CAKI-1 renal): 534 nM
TGI (CAKI-1 renal): 2100 nM
GI50 (HCT-15 colon): 1150 nM
TGI (HCT-15 colon): 2460 nM
GI50 (SK-MEL-5 melanoma): 2550 nM
TGI (SK-MEL-5 melanoma): > 100000 nM
GI50 (DLD-1 colon): 1940 nM
TGI (DLD-1 colon): > 100000 nM
GI50 (NCI-H522 lung): 179 nM
TGI (NCI-H522 lung): 369 nM
GI50 (SNB-19 CNS): 1090 nM
TGI (SNB-19 CNS): 2290 nM
GI50 (SK-MEL-28 melanoma): 868 nM
TGI (SK-MEL-28 melanoma): 2110 nM
GI50 (HCT-116 colon): 1550 nM
TGI (HCT-116 colon): 2920 nM
GI50 (OVCAR-8 ovarian): 1390 nM
TGI (OVCAR-8 ovarian): 2830 nM
GI50 (ACHN renal): 881 nM
TGI (ACHN renal): 2130 nM
GI50 (OVCAR-3 ovarian): 1400 nM
TGI (OVCAR-3 ovarian): 2730 nM
GI50 (HT29 colon): 1660 nM
TGI (HT29 colon): 3100 nM
GI50 (COLO 205 colon): 569 nM
TGI (COLO 205 colon): 1900 nM
GI50 (IGROV1 ovarian): 2830 nM
TGI (IGROV1 ovarian): > 100000 nM
GI50 (U251 CNS): 1100 nM
TGI (U251 CNS): 2300 nM
GI50 (EKVX NSCLC): 1480 nM
TGI (EKVX NSCLC): 2990 nM
GI50 (DMS 273 small cell lung): 1390 nM
TGI (DMS 273 small cell lung): 2740 nM
GI50 (NCI-H23 lung): 429 nM
TGI (NCI-H23 lung): 1780 nM
GI50 (HOP-18 NSCLC): 1500 nM
TGI (HOP-18 NSCLC): 2850 nM
GI50 (SNB-75 CNS): 735 nM
TGI (SNB-75 CNS): 2340 nM
GI50 (M19-MEL melanoma): 528 nM
TGI (M19-MEL melanoma): 1800 nM
GI50 (A498 renal): 2720 nM
TGI (A498 renal): 11400 nM
GI50 (786-0 renal): 1290 nM
TGI (786-0 renal): 2580 nM
GI50 (UACC-62 melanoma): 922 nM
TGI (UACC-62 melanoma): 2210 nM
GI50 (OVCAR-4 ovarian): 1730 nM
TGI (OVCAR-4 ovarian): 3620 nM
GI50 (HOP-92 NSCLC): 978 nM
TGI (HOP-92 NSCLC): 2180 nM
GI50 (A549 NSCLC): 3000 nM
TGI (A549 NSCLC): 9620 nM
GI50 (K-562 leukemia): 289 nM
TGI (K-562 leukemia): 4740 nM
GI50 (KM20L2 colon): 1550 nM
TGI (KM20L2 colon): 2970 nM
GI50 (M14 melanoma): 1370 nM
TGI (M14 melanoma): 2670 nM
GI50 (MOLT-4 leukemia): 740 nM
TGI (MOLT-4 leukemia): 5040 nM
GI50 (HOP-62 NSCLC): 5210 nM
TGI (HOP-62 NSCLC): > 100000 nM
GI50 (RPMI-8226 leukemia): 468 nM
TGI (RPMI-8226 leukemia): 2800 nM
GI50 (OVCAR-5 ovarian): 1810 nM
TGI (OVCAR-5 ovarian): 3240 nM
GI50 (UACC-257 melanoma): 955 nM
TGI (UACC-257 melanoma): 2200 nM
GI50 (NCI-H460 lung): 1790 nM
TGI (NCI-H460 lung): 3550 nM
